US20150087723A1, “MICROBIAL COMPOSITION” (Rohm and Haas Company, priority 2011, published 2015)
Values joined by “and” are separate entries in the source; they are usually repeats but may differ in a detail not shown here. Equal entries are not always repeated.

Columns and labels:
[1] = tested on: Escherichia coli (E. coli—ATCC #10536); assay: Synergy test: high resolution MBC microtiter plate assay, phosphate buffer containing 35% dipropylene glycol, 15 seconds contact; assay type: cell-based; conditions: E. coli 10536; for SI (Synergy Index = Qa/QA + Qb/QB): at Qa and Qb, <1 synergy, 1 additivity, >1 antagonism
Description: One measure of synergy is -the industrially accepted method described by Kull, F. C.; Eisman, P. C.; Sylwestrowicz, H. D. and Mayer, R. L., in Applied Microbiology 9:538-541 (1961), using the ratio determined by the formula:
Qa/QA+Qb/QB=Synergy Index (“SI”)
wherein: QA=concentration of compound A (first component) in percent, acting alone, which produced an end point (MBC of Compound A). Qa =concentration of compound A in percent, in the mixture, which produced an end point. QB=concentration of compound B (second component) in percent, acting alone, which produced an end point (MBC of Compound B). Qb=concentration of compound B in percent, in the mixture, which produced an end point.
When the sum of Qa/QA and Qb/QB is greater than one, antagonism is indicated. […] The lower the SI, the greater is the synergy shown by that particular mixture. The minimum biocidal concentration (MBC) of a microbicide is the lowest concentration tested under a specific set of conditions that provides complete kill of the tested microorganisms.
Synergy tests were-conducted using standard microtiter plate assays with, phosphate buffer containing 35% dipropylene glycol (DPG). In this method, a wide range of combinations of chemicals was tested by conducting high resolution MBC assays of Component (A) in the presence of various concentrations of Component (B). High resolution MBCs were determined by adding varying amounts of microbicide to one column of a microtiter plate and doing subsequent ten-fold dilutions using an automated liquid handling system to obtain a series of closely spaced endpoints. The MBC plate was inoculated one column at a time with the test microorganism. An aliquot of the inoculated well was transferred at 15 seconds to a plate containing a neutralizing agent (D/E Neutralizing Broth), mixed and held for 5 minutes before being transferred to a growth plate containing trypticase soy broth (TSB). The TSB plate was incubated at 37° C. and read for the presence/absence of growth at 24 hours. The lowest level tested that provided complete kill (as evidenced by no growth in the microtitre plate) of the test organisms in 15 seconds is the minimum biocidal concentration (MBC).
The synergy of the combinations of the present invention was determined against a bacterium, Escherichia coli (E. coli—ATCC #10536), at a concentration of approximately 1×10^8 bacteria per mL. This microorganism is representative of natural contaminants in many consumer and industrial applications.

[2] = tested on: Escherichia coli (E. coli—ATCC #10536); assay: Automated assessment of efficacy in model surfactant base (2.85% sodium cocoyl glycinate + 1.85% sodium lauroamphoacetate, pH 10), 15 seconds exposure, OD450/OD590 readout; assay type: cell-based; conditions: for MBC: Escherichia coli, ATCC10536, 15 s, in 2.85% sodium cocoyl glycinate + 1.85% sodium lauroamphoacetate solution at pH 10, E. coli, read-out: MBC (% w/v); for No. of replicates showing growth (out of 4) / Δ OD 450 nm = OD450 (time = 16 hours) - OD450 (time zero), Mean / Δ OD 590 nm OD590 (time = 16 hours) - OD590 (time zero), Mean: model surfactant solution
Procedure: Solutions were prepared such that the concentrations of the surfactant components and test actives were 1.1×x the final desired concentration in order to allow for dilution with the bacterial inoculum in the test. The solutions were manually adjusted to pH 10.0 by drop wise addition of sodium hydroxide solution, as measured with a phi meter at ambient temperature.
Tests were conducted using standard microtiter plate assays using an automated liquid handling system, 270 μl of the surfactant test solution was pipetted into each well of the microtitre plate and 30 μl of the bacterial suspension was then added. After exactly 15 seconds of bacterial exposure, a 30 μl volume of bacterial cells was withdrawn and transferred to 270 μl of D/E quench solution. After 5 minutes in the D/E quench, the optical density (OD) was measured for each plate in turn at two specific wavelengths (450 nm and 590 nm). These provide a dual check of antimicrobial activity, as the OD450 reading is specific for the yellow colour of D/E quench when bacterial growth is observed, whereas OD590 is specific for the initial purple colour of the D/E quench which is retained if no bacterial growth is observed. After the time zero OD measurements, plates were then incubated at 37° C. overnight (16 hours) before repeating the OD measurements. Delta OD values were calculated by subtracting […] the initial value at time zero. Bacterial growth is observed as an increase in OD450 and a decrease in ΔOD590. To identify antibacterially efficacious systems (those preventing appreciable bacterial growth after incubation), the following threshold changes in OD readings have been adopted: if (1), OD450 increases by less than 0.2 absorbance unit on incubation and (2). OD590 decreases by less than 0.35 unit on incubation. Conversely, where OD450 increases by more than 0.2 AU and OD590 decreases by more than 0.35 unit after incubation, corresponding to a colour shift from purple to yellow, the test system allows bacterial growth and is not deemed efficacious. Four replicate measurements in the same plate have been made for each test system. The number of replicate wells showing either bacterial growth or no growth is also readily assessed by eye by following the colour change.
Dose responses for individual components and binary mixtures of actives at a used concentration ratio were generated by sequential dilution of liquors with further surfactant solution to obtain a series of endpoints.
In some selected cases, the combinations were also tested at the weight ratio 1:1.

CCCc1ccccc1O [2-n-propylphenol]
SI (Synergy Index = Qa/QA + Qb/QB) [1]: 1.00 | MBC [2]: 1750 mg/L | No. of replicates showing growth (out of 4) ([2]; component alone at 0.125% w/v): 4 out of 4 | Δ OD 450 nm = OD450 (time = 16 hours) - OD450 (time zero), Mean ([2]; component alone at 0.125% w/v): −1.34 | Δ OD 590 nm OD590 (time = 16 hours) - OD590 (time zero), Mean ([2]; component alone at 0.125% w/v): 0.54 | No. of replicates showing growth (out of 4) ([2]; component alone at 0.175% w/v): 0 out of 4 | Δ OD 450 nm = OD450 (time = 16 hours) - OD450 (time zero), Mean ([2]; component alone at 0.175% w/v): −0.10 | Δ OD 590 nm OD590 (time = 16 hours) - OD590 (time zero), Mean ([2]; component alone at 0.175% w/v): 0.09 | No. of replicates showing growth (out of 4) ([2]; component alone at […] w/v): 4 out of 4 | Δ OD 450 nm = OD450 (time = 16 hours) - OD450 (time zero), Mean ([2]; component alone at […] w/v): −1.43 | Δ OD 590 nm OD590 (time = 16 hours) - OD590 (time zero), Mean ([2]; component alone at […] w/v): 0.44

CC(C)=CCC/C(C)=C/CO [(E)-3,7-dimethylocta-2,6-dien-1-ol]
SI (Synergy Index = Qa/QA + Qb/QB) [1]: 1.00 | Qb: MBC of the second component (B) acting alone (QB) ([1]; component alone (Qa = 0), complete kill in 15 seconds): 0.3 weight % and 0.5 weight % and 0.6 weight % | MBC [2]: > 5000 mg/L | No. of replicates showing growth (out of 4) ([2]; component alone at 0.2% w/v): 4 out of 4 | Δ OD 450 nm = OD450 (time = 16 hours) - OD450 (time zero), Mean ([2]; component alone at 0.2% w/v): −0.54 | Δ OD 590 nm OD590 (time = 16 hours) - OD590 (time zero), Mean ([2]; component alone at 0.2% w/v): 0.60 | No. of replicates showing growth (out of 4) ([2]; component alone at 0.3% w/v): 4 out of 4 | Δ OD 450 nm = OD450 (time = 16 hours) - OD450 (time zero), Mean ([2]; component alone at 0.3% w/v): −0.51 | Δ OD 590 nm OD590 (time = 16 hours) - OD590 (time zero), Mean ([2]; component alone at 0.3% w/v): 0.59 | No. of replicates showing growth (out of 4) ([2]; component alone at 0.4% w/v): 4 out of 4 | Δ OD 450 nm = OD450 (time = 16 hours) - OD450 (time zero), Mean ([2]; component alone at 0.4% w/v): −0.49 | Δ OD 590 nm OD590 (time = 16 hours) - OD590 (time zero), Mean ([2]; component alone at 0.4% w/v): 0.60 | No. of replicates showing growth (out of 4) ([2]; component alone at 0.5% w/v): 4 out of 4 | Δ OD 450 nm = OD450 (time = 16 hours) - OD450 (time zero), Mean ([2]; component alone at 0.5% w/v): −0.45 | Δ OD 590 nm OD590 (time = 16 hours) - OD590 (time zero), Mean ([2]; component alone at 0.5% w/v): 0.62 | No. of replicates showing growth (out of 4) ([2]; component alone at […] w/v): 4 out of 4 | Δ OD 450 nm = OD450 (time = 16 hours) - OD450 (time zero), Mean ([2]; component alone at […] w/v): −0.53 | Δ OD 590 nm OD590 (time = 16 hours) - OD590 (time zero), Mean ([2]; component alone at […] w/v): 0.58 | Terpene alcohol MBC %(w/v) ([2]; terpene alcohol alone, model surfactant, E. Coli): 0.5 %(w/v)
